Where a name gives a salt, the structure may show the parent alone. Marks after values point to notes of the source that are not given here.
System: male rats
Experiment: 28-day repeated dose oral toxicity study (OECD 407) with GC-MS/LC-MS plasma metabolite profiling, male rats
Format: in vivo, rat
Details: plasma
Source text: Drinking water was also offered ad libitum.
The samples were centrifuged for generation of plasma.

In the case of CN(CCOc1ccc(CC2SC(=O)NC2=O)cc1)c1ccccn1 (stereo not drawn) [Rosiglitazone maleate], the “Alanine, ratio versus control” value (day 7) is reported as 0.78*, the “Citrulline, ratio versus control” value (day 7) is reported as 0.88* and the “Isoleucine, ratio versus control” value (day 7) is reported as 0.7*. For the same compound, the “Leucine, ratio versus control” value (day 7) was 0.74*, the “Lysine, ratio versus control” value (day 7) was 0.78* and the “Ornithine, ratio versus control” value (day 7) was 0.85*. The “Phenylalanine, ratio versus control” value (day 7) was 0.85*, the “Phosphate (inorganic and organic phosphates), ratio versus control” value (“Phosphate … ratio versus control” for short) (day 7) was 0.76* and the “Phosphatidylcholine (C16:0,C16:0), ratio versus control” value (day 7) was 1.14*. For the same compound, the “Proline, ratio versus control” value (day 7) was 0.89*, the “Valine, ratio versus control” value (day 7) was 0.74* and the “Phosphatidylcholine (C16:0,C20:5), ratio versus control” value (day 7 (Table 4a)) was 1.07*. The “Docosahexaenoic acid (C22:cis[4,7,10,13,16,19]6), ratio versus control” value (“Docosahexaenoic acid … ratio versus control” for short) (day 7 (Table 4b)) was 0.57*, the “Phosphatidylcholine (C18:0,C22:6), ratio versus control” value (day 7 (Table 4b)) was 0.87* and the “Threonine, ratio versus control” value (day 7 (Table 4b)) was 0.74*. For the same compound, the “Alanine, ratio versus control” value (day 14) was 0.83*, the “Citrulline, ratio versus control” value (day 14) was 0.79 and the “Isoleucine, ratio versus control” value (day 14) was 0.72*. For the same compound, the “Leucine, ratio versus control” value (day 14) was 0.66*, the “Lysine, ratio versus control” value (day 14) was 0.77* and the “Ornithine, ratio versus control” value (day 14) was 0.86*. The “Phenylalanine, ratio versus control” value (day 14) was 0.84*, the “Phosphate … ratio versus control” value (day 14) was 0.66* and the “Phosphatidylcholine (C16:0,C16:0), ratio versus control” value (day 14) was 1.22*. The “Proline, ratio versus control” value (day 14) was 0.88*, the “Valine, ratio versus control” value (day 14) was 0.74* and the “Phosphatidylcholine (C16:0,C20:5), ratio versus control” value (day 14 (Table 4a)) was 1.11*. For the same compound, the “Docosahexaenoic acid … ratio versus control” value (day 14 (Table 4b)) was 0.66*, the “Phosphatidylcholine (C18:0,C22:6), ratio versus control” value (day 14 (Table 4b)) was 0.9* and the “Threonine, ratio versus control” value (day 14 (Table 4b)) was 0.74*. The “Alanine, ratio versus control” value (day 28) was 0.88*, the “Citrulline, ratio versus control” value (day 28) was 0.86* and the “Isoleucine, ratio versus control” value (day 28) was 0.78*. For the same compound, the “Leucine, ratio versus control” value (day 28) was 0.78*, the “Lysine, ratio versus control” value (day 28) was 0.86* and the “Ornithine, ratio versus control” value (day 28) was 0.78*. For the same compound, the “Phenylalanine, ratio versus control” value (day 28) was 0.81*, the “Phosphate … ratio versus control” value (day 28) was 0.69* and the “Phosphatidylcholine (C16:0,C16:0), ratio versus control” value (day 28) was 1.07. The “Proline, ratio versus control” value (day 28) was 0.93*, the “Valine, ratio versus control” value (day 28) was 0.84* and the “Phosphatidylcholine (C16:0,C20:5), ratio versus control” value (day 28 (Table 4a)) was 1.06. For the same compound, the “Docosahexaenoic acid … ratio versus control” value (day 28 (Table 4b)) was 0.83*, the “Phosphatidylcholine (C18:0,C22:6), ratio versus control” value (day 28 (Table 4b)) was 0.84* and the “Threonine, ratio versus control” value (day 28 (Table 4b)) was 0.87*.
